Experimental data taken from patent US7601743B2, “Cyano anthranilamide insecticides” (Syngenta Crop Protection, Inc., priority 2005, dated 2009).

What was measured:
Format in all cases: in vivo
[1] = system: Plutella xylostella; assay: Activity against Plutella xylostella; conditions: 72 h, 400 ppm spray on young cabbage plants, 3rd instar, 3 days, read-out: percentage reduction in the population and in the feeding damage (% activity)
Description: (§1) Young cabbage plants are sprayed with an aqueous emulsion spray mixture comprising 400 ppm of active ingredient and, after the spray coating has dried on, populated with 10 caterpillars (3rd instar) of Plutella xylostella and introduced into a plastic container. 3 days later, the percentage reduction in the population and in the feeding damage (% activity) are determined by comparing the number of dead caterpillars and the feeding damage between the treated and untreated plants.

[2] = system: Heliothis virescens; assay: Activity against Heliothis virescens (foliar application); conditions: 144 h, 400 ppm spray on young soya plants, 1st instar, 6 days, read-out: percentage reduction in the population and in the feeding damage (% activity)
Description: as §1, with “soya” for “cabbage”, “(1st” for “(3rd”, “Heliothis virescens” for “Plutella xylostella”, “6” for “3”

[3] = system: Diabrotica balteata; assay: Activity against Diabrotica balteata (sprayed maize seedlings); conditions: 144 h, 400 ppm spray on maize seedlings, 2nd instar larvae, 6 days, read-out: percentage reduction in the population (% activity)
Description: Maize seedlings are sprayed with an aqueous emulsion spray mixture comprising 400 ppm of active ingredient and, after the spray coating has dried on, populated with 10 larvae (2nd instar) of Diabrotica balteata and introduced into a plastic container. 6 days later, the percentage reduction in the population (% activity) is determined by comparing the number of dead larvae between the treated and untreated plants.

[4] = system: Spodoptera littoralis; assay: Activity against Spodoptera littoralis (sprayed soya plants); conditions: 72 h, 400 ppm spray on young soya plants, 1st instar, 3 days, read-out: percentage reduction in the population and in the feeding damage (% activity)
Description: as §1, with “soya” for “cabbage”, “(1st” for “(3rd”, “Spodoptera littoralis” for “Plutella xylostella”

Measured: inhibition at 400 ppm

Cc1cc(C#N)cc(C(=O)NC2(C3CC3)CC2)c1NC(=O)c1cc(C(F)(F)F)nn1-c1ncccc1Cl [A.1.1, 2-(3-Chloro-pyridin-2-yl)-5-trifluoromethyl-2H-pyrazole-3-carboxylic acid [2-(bicyclopropyl-1-ylcarbamoyl)-4-cyano-6-methyl-phenyl]-amide]
> 80%: all assays above
